The results in this text go back to patent US7858646B2, “Potentiators of glutamate receptors” (Eli Lilly and Company, priority 2004, dated 2010).

The target in one experiment is T1, human mGlu2 receptors (Homo sapiens, UniProt Q14416).
T1 construct: expressed in transfected cells; host or cells: RGT cells (co-transfected with rat GLAST, stably transfected with Galpha15)
Nature of the experiment: Potentiation of glutamate-induced increase in intracellular calcium with a mGlu2 expressing cell line (FLIPR). Format: cell-based. To be noted: RGT cells expressing human mGlu2 and Galpha15; with submaximal glutamate (e.g. 1 μM). Here is the method: Potentiation of Glutamate-Induced Increase in Intracellular Calcium with a mGlu2 Expressing Cell Line.
Cell lines expressing human mGlu2 receptors are derived as previously described (Desai, Burnett, Mayne, Schoepp, Mol. Pharmacol. 48, 648-657, 1995) and cultured in DMEM with 5% dialyzed fetal bovine serum, 1 mM glutamine, 1 mM sodium pyruvate, 50 μg/mL Geneticin G418, and 0.2 mg/mL hygromycin B. Confluent cultures are passaged weekly. These cells are referred to as RGT cells for Rat Glutamate Transporter, and have been co-transfected with the glutamate/aspartate transporter GLAST. The RGT cell line expressing the mGlu2 receptors is stably transfected with the promiscuous G-protein, Galpha15 to change the signaling pathway to the mGlu2 receptor to one that could be easily measured through release of intracellular calcium. Thus, intracellular calcium levels are monitored before and after the addition of drugs on a Fluorometric Imaging Plate Reader (i.e. FLIPR, Molecular Devices). The following buffer is used throughout as an assay buffer: 10 mM KCl, 138 mM NaCl, 5 mM Ca Cl2, 1 mM MgC2, 4 mM Na H2PO4, 10 mM Glucose, 10 mM HEPES, pH 7.4. Cells that had been plated 48 hours prior at a density of 30-40,000 cells per well in a 96-well plate are loaded with a calcium-sensitive dye for 90 minutes at 25° C. Fluo-3 (2 mM in DMSO, Molecular Probes) are mixed with a equal volume of 10% pluronic acid in DMSO, and diluted to 8 μM into the buffer described above containing 10% fetal bovine serum to make the loading buffer. Following loading of the cells, the loading buffer is removed and replaced with assay buffer prior to drug addition and monitoring on the FLIPR. The resulting signal from the addition of compounds of formula (I) and submaximal concentrations of a glutamate-site agonist (e.g. 1 μM glutamate) is determined by taking the difference of the maximal fluorescent peak height minus the background fluorescence in each well and expressing the results as a percent of the signal seen with a maximal glutamate response (30 μM glutamate, typically about 30-50,000 Relative Fluorescent Units). Least squares curve fitting with a four-parameter equation is then applied to the resulting dose-% response curve to determine the resulting EC50 values.
(Calcium flux is commonly read through the fluorescence of an indicator in the cells.)

Another experiment has as its target T2, human CysLT1 receptor (Homo sapiens, UniProt Q9Y271).
T2 construct: expressed in transfected cells; host or cells: AV12-664 (ATCC-9595)
T2 sequence (Q9Y271 1-337): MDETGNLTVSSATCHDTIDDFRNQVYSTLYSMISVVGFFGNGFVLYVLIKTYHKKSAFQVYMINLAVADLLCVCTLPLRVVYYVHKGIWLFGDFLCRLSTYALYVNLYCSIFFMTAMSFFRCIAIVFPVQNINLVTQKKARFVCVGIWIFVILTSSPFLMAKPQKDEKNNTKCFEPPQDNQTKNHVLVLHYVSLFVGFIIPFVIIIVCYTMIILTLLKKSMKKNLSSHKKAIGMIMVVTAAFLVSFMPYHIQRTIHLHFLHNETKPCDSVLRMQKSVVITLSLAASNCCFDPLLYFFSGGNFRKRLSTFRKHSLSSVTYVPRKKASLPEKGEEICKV
Nature of the experiment: Antagonism of LTD4-induced increase in intracellular calcium within a CysLT1 receptor expressing cell line (FLIPR). Format: cell-based. To be noted: AV12-664 cells expressing human CysLT1; 6 nM LTD4; read-out: antagonism of CysLT1 receptors, IC50. Here is the method:
Antagonism of Cysteinyl-leukotriene D4 (LTD4)-Induced Increase in Intracellular Calcium within a Cysteinyl-Leukotriene 1 (CysLT1) Receptor Expressing Cell Line.
Cell lines expressing the human CysLT1 receptor [AV12-664 (ATCC-9595)] are derived and maintained in culture media: DMEM with 5% dialyzed fetal bovine serum, 1 mM glutamine, and 1 mM sodium pyruvate. Confluent cultures are passaged weekly. Intracellular calcium levels are monitored in the CysLT1-expressing cells with the addition of LTD4, with or without prior exposure to the compounds being tested as antagonists with a Fluorometric Imaging Plate Reader (FLIPR, Molecular Devices). The following buffer is used throughout as an assay buffer: Hanks Buffered Saline Solution without phenol red (GIBCO), with 10 mM HEPES pH 7.4. Cells that had been plated 48 hours prior at a density of 20-25,000 cells per well in a 96-well plate are loaded with a calcium-sensitive dye for 90 minutes at 25° C. Fluo-3 (2 mM in DMSO, Molecular Probes) is mixed with an equal volume of 10% pluronic acid in DMSO, and diluted to 8 μM in the buffer described above containing 10% fetal bovine serum to make the loading buffer. Following loading of the cells, the buffer is removed and replaced with assay buffer prior to drug addition and monitoring on the FLIPR for several minutes. The resulting signal from the addition of 6 nM LTD4 (provides approximately 90% of the maximal signal with 25 nM LTD4) is determined by taking the difference of the maximal fluorescent peak height minus the background fluorescence in each well and expressing the results as a percent of the signal seen without pretreatment of the test compound(s). Least squares curve fitting with a four-parameter equation is applied to the resulting dose-% inhibition curve to determine the resulting IC50 values.

T1 sequence (Q14416 19-872): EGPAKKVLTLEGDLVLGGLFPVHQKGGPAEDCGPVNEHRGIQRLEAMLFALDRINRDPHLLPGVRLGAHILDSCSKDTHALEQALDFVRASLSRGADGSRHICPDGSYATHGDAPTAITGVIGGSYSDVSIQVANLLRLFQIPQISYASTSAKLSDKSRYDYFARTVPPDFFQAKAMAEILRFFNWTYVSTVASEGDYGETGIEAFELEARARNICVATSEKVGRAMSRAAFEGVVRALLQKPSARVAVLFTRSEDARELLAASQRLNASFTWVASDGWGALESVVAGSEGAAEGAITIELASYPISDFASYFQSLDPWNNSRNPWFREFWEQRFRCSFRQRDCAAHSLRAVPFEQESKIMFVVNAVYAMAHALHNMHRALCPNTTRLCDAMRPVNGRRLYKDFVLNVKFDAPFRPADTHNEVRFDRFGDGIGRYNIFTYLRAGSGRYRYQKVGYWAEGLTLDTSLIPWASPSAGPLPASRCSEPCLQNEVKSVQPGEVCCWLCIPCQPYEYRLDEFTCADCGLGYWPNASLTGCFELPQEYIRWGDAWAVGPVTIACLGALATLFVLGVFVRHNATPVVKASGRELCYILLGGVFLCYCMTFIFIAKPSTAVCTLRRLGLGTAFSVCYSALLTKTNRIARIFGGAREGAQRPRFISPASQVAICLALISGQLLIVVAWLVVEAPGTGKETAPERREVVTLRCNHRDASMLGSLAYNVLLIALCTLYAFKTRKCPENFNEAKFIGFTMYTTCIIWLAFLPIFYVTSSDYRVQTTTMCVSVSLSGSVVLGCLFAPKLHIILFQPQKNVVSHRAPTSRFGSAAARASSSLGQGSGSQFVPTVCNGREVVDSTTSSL

Usually EC50 stands for the concentration giving half of the maximal effect. One may read the IC50 as the concentration that gives 50% inhibition. As to `CC(=O)c1ccc(OCc2ccc(Oc3cc(-c4nn[nH]n4)ccn3)cc2)c(C)c1O` [Example 21, 1-(2-Hydroxy-3-methyl-4-{4-[4-(1H-tetrazol-5-yl)-pyridin-2-yloxy]-benzyloxy}-phenyl)-ethanone], at human mGlu2 receptors, the EC50 was below 350 nM. In addition, at human CysLT1 receptor, the IC50 was below 150 nM.

For `CCCc1c(OCc2cccc(Sc3cc(C(=O)O)ccn3)c2)ccc(C(C)=O)c1O` [Example 84, 6-(3-((4-acetyl-3-hydroxy-2-propylphenoxy)methyl)phenylthio)isonicotinic acid], at human mGlu2 receptors, the EC50 is below 350 nM. In addition, the IC50 at human CysLT1 receptor is below 150 nM.

In the case of `CC(=O)c1ccc(OCc2ccc(Oc3cccc(-c4nn[nH]n4)c3)cc2)c(C)c1O` [Example 22, 1-(2-Hydroxy-3-methyl-4-{4-[3-(1H-tetrazol-5-yl)-phenoxy]-benzyloxy}-phenyl)-ethanone], the concentration for a half-maximal effect (EC50) on human mGlu2 receptors is below 350 nM.

On to `CC(=O)c1ccc(OCc2cccc(Oc3cc(-c4nn[nH]n4)ccn3)c2)c(C(F)(F)F)c1O` [Example 27, 1-(2-Hydroxy-4-{3-[4-(2H-tetrazol-5-yl)-pyridin-2-yloxy]-benzyloxy}-3-trifluoromethyl-phenyl)-ethanone], for which the EC50 on human mGlu2 receptors was below 350 nM. For the same molecule, the IC50 on human CysLT1 receptor is below 150 nM.
